These results are taken from US20250376483A1, “PRODRUGS OF PAN-KRAS INHIBITORS” (Mirati Therapeutics, Inc., priority 2022, published 2025).

Some results are limits rather than exact numbers.

Data set [1] in a line: Plasma Stability Assay (human plasma). Format: in vitro ADME. The settings on record: both sexes; pooled human plasma, heparin, final conc. 2 μM, 37° C., 0-120 min; read-out: Human Plasma Stability t1/2. The method, then:
This Example illustrates that exemplary compounds of the present invention is cleavage in human plasma.
(§1) Test Compounds and Stock Solutions: Stock Conc. 10 mM; Final Conc. 2 μM
(§2) Test Compound and Control Working Solution Preparation:
• Test compound intermediate solution: 10 μL of compound stock solution (10 mM in dimethyl sulfoxide (DMSO)) were diluted with 90 μL of DMSO (intermediate solution concentration: 1 mM, 100% DMSO) • Control intermediate solution: 10 μL of control stock solution (10 mM in dimethyl sulfoxide (DMSO)) were diluted with 90 μL of DMSO (intermediate solution concentration: 1 mM, 100% DMSO) • Species/Matrix: Human Plasma • No. of Individuals: 3 Male & 3 Female • Anticoagulant Used: Heparin
• The pooled frozen plasma was thawed in a water bath at 37° C. prior to experiment. Plasma was centrifuged at 4000 rpm for 5 min and the clots were removed if any. • Using an Apricot automation workstation, 98 μL/well of blank plasma were added to all 96-well reaction plates. (Blank, T0, T10, T30, T60 and T120) • An Apricot automation workstation was used to add 2 μL/well of working solution (100 μM) to all reaction plates except Blank. (T0, T10, T30, T60 and T120) • All reaction plates containing mixtures of compound and plasma were incubated at 37° C. in water bath. • The reaction plates were incubated at 37° C., and timer was started. • At the end of incubation, added 500 μL of stop solution (200 ng/mL tolbutamide and 200 ng/mL labetalol in ACN) to precipitate protein. Mixed thoroughly. • Each plate was sealed and shaken for 20 minutes. • After shaking, each plate was centrifuged at 4000 rpm and 4° C. for 20 minutes • After centrifugation, an Apricot automation workstation was used to transfer 50 μL supernatant into 100 μL HPLC water. • Each bioanalysis plate was sealed and shaken for 10 minutes prior to LC-MS/MS analysis Data Analysis • The % remaining of test compound after incubation in blood was calculated using following equation:
(§3) [formula] • where PAR is the peak area ratio of analyte versus internal standard (IS) • The appointed incubation time points are TO (0 min), Tn (n=0, 10, 30, 60 and 120 min)

A short description of data set [2]: Whole Blood Stability Assay (mouse whole blood). Format: in vitro ADME. As to conditions: CD-1 mouse blood, EDTA-K2, final conc. 2 μM, 37° C., 0-120 min; for half-life at 2 μM: male, fresh whole blood, read-out: Mouse Whole Blood Stability t1/2. The method, then: Whole Blood Stability Assay
This Example illustrates that exemplary compounds of the present invention is cleavage in mouse whole blood.
as §1, §2
• Intermediate solution: 5 μL of compound stock solution (10 mM in dimethyl sulfoxide (DMSO)) were diluted with […] of DMSO (intermediate solution concentration: 1 mM, 100% DMSO) • Propantheline bromide (control) intermediate solution: 5 μL of propantheline stock solution (10 mM in ultra-pure water) were diluted with 45 μL of ultra-pure water (intermediate solution concentration: 1 mM) • Working solution 1: 20 μL of test compound intermediate solution (1 mM) were diluted with 180 μL of 45% ACN/H2O (working solution concentration: […], 40.5% ACN, 10% DMSO) • Working solution 2: 20 μL of control intermediate solution (1 mM) were diluted with 180 μL of 45% ACN/H2O (working solution concentration: 100 μM, 40.5% ACN, 10% DMSO) • Species/Matrix: CD-1 Mouse Blood • No. of Individuals: n>3 Male • Anticoagulant Used: EDTA-K2
• The fresh blood was collected on the day of experiment and pre-warmed in a water bath at 37° C. • Using an Apricot automation workstation, 98 μL/well of blank blood were added to all 96-well reaction plates (Blank, T0, T10, T30, T60 and T120). • An Apricot automation workstation was used to add 2 μL/well of working solution (100 μM) to all reaction plates except Blank (T0, T10, T30, T60 and T120). • All reaction plates containing mixtures of compound and blood were incubated at 37° C. in water bath. • The reaction plates were incubated at 37° C., and timer was started. • At the end of incubation, mixed 100 μL water with 100 μL spiked blood samples, then added 800 μL of stop solution (200 ng/mL tolbutamide and 200 ng/mL labetalol in ACN) to precipitate protein. Mixed thoroughly. • Each plate was sealed and shaken for 20 minutes. • After shaking, each plate was centrifuged at 4000 rpm and 4° C. for 20 minutes. • After centrifugation, an Apricot automation workstation was used to transfer 150 μL of supernatant from each reaction plate to its corresponding bioanalysis plate. • Each bioanalysis plate was submitted to LC-MS/MS analysis.
• The % remaining of test compound after incubation in blood was calculated using following equation:
as §3

Consider `CCCCCCCCCC(=O)Oc1cc(-c2ncc3c(N4C[C@@H]5C[C@H](C4)[C@H](O)C5)nc(OC[C@@]45CCCN4C[C@H](F)C5)nc3c2F)c2c(CC)c(F)ccc2c1` [Example 25, 5-ethyl-6-fluoro-4-(8-fluoro-2-(((2R,7aS)-2-fluorotetrahydro-1H-pyrrolizin-7a(5H)-yl)methoxy)-4-((1R,5R,6R)-6-hydroxy-3-azabicyclo[3.2.1]octan-3-yl)pyrido[4,3-d]pyrimidin-7-yl)naphthalen-2-yl decanoate], for which, in data set [1], the half-life at 2 μM was 77 min. The “Mouse Whole Blood Stability t1/2” value in data set [2] is 1 min.

On to `CCc1c(F)ccc2cc(OC(C)=O)cc(N3CCc4c(nc(OC[C@@]56CCCN5C[C@H](F)C6)nc4N4CCC[C@]5(C4)NC(=O)NC5=O)C3)c12` [Example 27, 4-(4-((R)-2,4-dioxo-1,3,7-triazaspiro[4.5]decan-7-yl)-2-(((2R,7aS)-2-fluorotetrahydro-1H-pyrrolizin-7a(5H)-yl)methoxy)-5,8-dihydropyrido[3,4-d]pyrimidin-7(6H)-yl)-5-ethyl-6-fluoronaphthalen-2-yl acetate], for which the half-life at 2 μM in data set [1] was 12 min; in data set [2], 2 min.

Turning to `CCC(=O)Oc1cc(N2CCc3c(nc(OC[C@@]45CCCN4C[C@H](F)C5)nc3N3CCC[C@]4(C3)NC(=O)NC4=O)C2)c2c(CC)c(F)ccc2c1` [Example 29, 4-(4-((R)-2,4-dioxo-1,3,7-triazaspiro[4.5]decan-7-yl)-2-(((2R,7aS)-2-fluorotetrahydro-1H-pyrrolizin-7a(5H)-yl)methoxy)-5,8-dihydropyrido[3,4-d]pyrimidin-7(6H)-yl)-5-ethyl-6-fluoronaphthalen-2-yl propionate], the half-life at 2 μM was determined as 33 min in data set [1] and 2 min in data set [2].

Turning to `CCc1c(F)ccc2cc(OC(=O)OC)cc(N3CCc4c(nc(OC[C@@]56CCCN5C[C@H](F)C6)nc4N4CCC[C@]5(C4)NC(=O)NC5=O)C3)c12` [Example 30, 4-(4-((R)-2,4-dioxo-1,3,7-triazaspiro[4.5]decan-7-yl)-2-(((2R,7aS)-2-fluorotetrahydro-1H-pyrrolizin-7a(5H)-yl)methoxy)-5,8-dihydropyrido[3,4-d]pyrimidin-7(6H)-yl)-5-ethyl-6-fluoronaphthalen-2-yl methyl carbonate], the half-life at 2 μM in data set [1] stood at 27 min. Further, the “Mouse Whole Blood Stability t1/2” value in data set [2] is 1 min.

For `CCc1c(F)ccc2cc(OC(=O)C3CC3)cc(N3CCc4c(nc(OC[C@@]56CCCN5C[C@H](F)C6)nc4N4CCC[C@]5(C4)NC(=O)NC5=O)C3)c12` [Example 32, 4-(4-((R)-2,4-dioxo-1,3,7-triazaspiro[4.5]decan-7-yl)-2-(((2R,7aS)-2-fluorotetrahydro-1H-pyrrolizin-7a(5H)-yl)methoxy)-5,8-dihydropyrido[3,4-d]pyrimidin-7(6H)-yl)-5-ethyl-6-fluoronaphthalen-2-yl cyclopropanecarboxylate], the half-life at 2 μM came out at 51 min in data set [1] and 2 min in data set [2].

As for `CCCC(=O)Oc1cc(N2CCc3c(nc(OC[C@@]45CCCN4C[C@H](F)C5)nc3N3CCC[C@]4(C3)NC(=O)NC4=O)C2)c2c(CC)c(F)ccc2c1` [Example 33, 4-(4-((R)-2,4-dioxo-1,3,7-triazaspiro[4.5]decan-7-yl)-2-(((2R,7aS)-2-fluorotetrahydro-1H-pyrrolizin-7a(5H)-yl)methoxy)-5,8-dihydropyrido[3,4-d]pyrimidin-7(6H)-yl)-5-ethyl-6-fluoronaphthalen-2-yl butyrate], the half-life at 2 μM in data set [1] is 62 min; in data set [2] it was less than 5 min.

Turning to `CCc1c(F)ccc2cc(OC(=O)C(C)C)cc(N3CCc4c(nc(OC[C@@]56CCCN5C[C@H](F)C6)nc4N4CCC[C@]5(C4)NC(=O)NC5=O)C3)c12` [Example 34, 4-(4-((R)-2,4-dioxo-1,3,7-triazaspiro[4.5]decan-7-yl)-2-(((2R,7aS)-2-fluorotetrahydro-1H-pyrrolizin-7a(5H)-yl)methoxy)-5,8-dihydropyrido[3,4-d]pyrimidin-7(6H)-yl)-5-ethyl-6-fluoronaphthalen-2-yl isobutyrate], in data set [1], the half-life at 2 μM came to 210 min. Also, in data set [2], the “Mouse Whole Blood Stability t1/2” value is 1 min.

Regarding `CCc1c(F)ccc2cc(OC(=O)N(C)C)cc(N3CCc4c(nc(OC[C@@]56CCCN5C[C@H](F)C6)nc4N4CCC[C@]5(C4)NC(=O)NC5=O)C3)c12` [Example 35, 4-(4-((R)-2,4-dioxo-1,3,7-triazaspiro[4.5]decan-7-yl)-2-(((2R,7aS)-2-fluorotetrahydro-1H-pyrrolizin-7a(5H)-yl)methoxy)-5,8-dihydropyrido[3,4-d]pyrimidin-7(6H)-yl)-5-ethyl-6-fluoronaphthalen-2-yl dimethylcarbamate], the half-life at 2 μM in data set [1] and in data set [2] was greater than 289 min throughout.

For the molecule `CCOC(=O)Oc1cc(N2CCc3c(nc(OC[C@@]45CCCN4C[C@H](F)C5)nc3N3CCC[C@]4(C3)NC(=O)NC4=O)C2)c2c(CC)c(F)ccc2c1` [Example 36, 4-(4-((R)-2,4-dioxo-1,3,7-triazaspiro[4.5]decan-7-yl)-2-(((2R,7aS)-2-fluorotetrahydro-1H-pyrrolizin-7a(5H)-yl)methoxy)-5,8-dihydropyrido[3,4-d]pyrimidin-7(6H)-yl)-5-ethyl-6-fluoronaphthalen-2-yl ethyl carbonate], the half-life at 2 μM was 33 min in data set [1] and 3 min in data set [2].

Consider `CCc1c(F)ccc2cc(OC(=O)N3CCC3)cc(N3CCc4c(nc(OC[C@@]56CCCN5C[C@H](F)C6)nc4N4CCC[C@]5(C4)NC(=O)NC5=O)C3)c12` [Example 37, 4-(4-((R)-2,4-dioxo-1,3,7-triazaspiro[4.5]decan-7-yl)-2-(((2R,7aS)-2-fluorotetrahydro-1H-pyrrolizin-7a(5H)-yl)methoxy)-5,8-dihydropyrido[3,4-d]pyrimidin-7(6H)-yl)-5-ethyl-6-fluoronaphthalen-2-yl azetidine-1-carboxylate], for which the half-life at 2 μM in data set [1] was greater than 289 min; in data set [2], 189 min.

In the case of `CCc1c(F)ccc2cc(OC(=O)C(C)(C)C)cc(N3CCc4c(nc(OC[C@@]56CCCN5C[C@H](F)C6)nc4N4CCC[C@]5(C4)NC(=O)NC5=O)C3)c12` [Example 39, 4-(4-((R)-2,4-dioxo-1,3,7-triazaspiro[4.5]decan-7-yl)-2-(((2R,7aS)-2-fluorotetrahydro-1H-pyrrolizin-7a(5H)-yl)methoxy)-5,8-dihydropyrido[3,4-d]pyrimidin-7(6H)-yl)-5-ethyl-6-fluoronaphthalen-2-yl pivalate], in data set [1], the half-life at 2 μM was greater than 289 min. Besides, the “Mouse Whole Blood Stability t1/2” value in data set [2] came to 1 min.

Consider `CCc1c(F)ccc2cc(OC(=O)OC(C)C)cc(N3CCc4c(nc(OC[C@@]56CCCN5C[C@H](F)C6)nc4N4CCC[C@]5(C4)NC(=O)NC5=O)C3)c12` [Example 40, 4-(4-((R)-2,4-dioxo-1,3,7-triazaspiro[4.5]decan-7-yl)-2-(((2R,7aS)-2-fluorotetrahydro-1H-pyrrolizin-7a(5H)-yl)methoxy)-5,8-dihydropyrido[3,4-d]pyrimidin-7(6H)-yl)-5-ethyl-6-fluoronaphthalen-2-yl isopropyl carbonate], for which the results for the half-life at 2 μM in data set [1] and in data set [2] were 95 min and 2 min, respectively.
